Here are results for eight compounds from PubChem BioAssay (NCI).

Holding throughout (assay): inhibition of tumour cell growth, NCI panel, 48 h
Experiment [1] deals with SF-295 CNS.
Experiment [2] has as its system UACC-257 melanoma.
Experiment [3] relates to OVCAR-5 ovarian.
For experiment [4], the system named is OVCAR-3 ovarian.
For experiment [5], the system named is SNB-75 CNS.
Experiment [6] concerns K-562 leukemia.
Experiment [7] relates to CCRF-CEM leukemia.
Experiment [8] concerns UACC-62 melanoma.
Experiment [9] concerns OVCAR-8 ovarian.
Experiment [10] has as its system SK-MEL-2 melanoma.
The test system of experiment [11] is A498 renal.

Molecules are shown by their SMILES.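 Briefly, cells in 96-well plates were exposed to five compound concentrations for 48 h, and endpoints were estimated by linear interpolation. At the GI50, growth is halved. TGI marks complete inhibition of growth.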

As to `COc1ccc2nc3ccccc3c(NCCCCCCN(CCCl)CCCl)c2c1`, the TGI in experiment [1] is 1.01 µM; in experiment [2], above 22.9 µM; in [3], 1.9 µM; in experiment [4] it was 3.14 µM; in experiment [5], 0.0924 µM; in experiment [6], above 18.5 µM.

For `COC(=O)C1=C(C(=O)OC)SC2(S1)C1=C(CCCC1)SC(C(=O)OC)=C2C(=O)OC`, the TGI in [7] is 8.16 µM; in experiment [1] it was 27.8 µM; in experiment [2] it was 28.9 µM; in [8] it was 25.7 µM; in experiment [3], 25.4 µM; in experiment [9] it was 17.3 µM. For the same compound, the TGI in [4] amounted to 18.9 µM; in experiment [10] it was 30 µM; in experiment [6], 21.5 µM; in experiment [11], 19.4 µM.

Regarding `Nc1ccc2[nH]c3c(-c4ccccc4)nccc3c2c1`, the TGI in [7] is above 100 µM; in experiment [1], above 100 µM; in [2], above 100 µM; in experiment [8], above 80.8 µM; in experiment [3] it was above 100 µM; in experiment [9], above 100 µM. Moreover, the TGI in [4] is above 100 µM; in [5], above 92.7 µM; in [10] it was above 100 µM; in [6] it was above 100 µM; in experiment [11] it was above 100 µM.

As for `COc1cc(Nc2c3ccccc3nc3ccccc23)ccc1NS(C)(=O)=O`, the TGI in [7] was above 100 µM; in experiment [1], 15.2 µM; in experiment [2], 24.2 µM; in experiment [8], 26.7 µM; in [3], 23 µM; in experiment [9] it was 17.2 µM. Also, the TGI in [5] is 47.1 µM; in experiment [10] it was 23.6 µM; in experiment [6], above 100 µM; in experiment [11], 19.6 µM.

`O=C(NC(Cc1ccc(I)cc1)C(=O)O)c1ccc(Br)cc1` (configuration not stated): the TGI in experiment [7], in experiment [1], in [2], in [8], in experiment [3] and in experiment [9] was above 100 µM each time. For the same compound, the TGI in experiment [4], in experiment [5], in experiment [10], in experiment [6] and in experiment [11] was above 100 µM each time.

For `C[C@]12CCc3nc(Nc4ccccc4)sc3C1=CC[C@@H]1[C@@H]2CC[C@]2(C)/C(=N/NC(N)=S)CC[C@@H]12`, the GI50 was 1.98 µM in experiment [7]; 3.75 µM in [1]; 6.1 µM in experiment [2]; 5.85 µM in experiment [8]; 3.32 µM in experiment [9]; 5.89 µM in [10]. Besides, the GI50 is 1.97 µM in experiment [6] and 1.39 µM in [11]. Also, the TGI in [7] is above 100 µM; in [1] it was 72.3 µM; in experiment [2], above 100 µM; in experiment [8] it was above 100 µM; in [9], above 100 µM; in experiment [10], above 100 µM. Moreover, the TGI in [6] and in experiment [11] was above 100 µM each time.

In the case of `COc1ccc(/C(Cl)=C(\C=O)c2ccc(F)cc2)cc1OC`, the TGI in experiment [7] is 48.6 µM; in experiment [1], 63.2 µM; in experiment [8] it was 61.6 µM; in experiment [9], above 100 µM; in [4] it was 64.6 µM; in [5], 13.7 µM. Moreover, the values for the TGI in experiment [10], in [6] and in experiment [11] were 39.4 µM, 73.5 µM and 54.8 µM, respectively.

`N=C(N)c1ccc(N=Nc2c(O)ccc3c2[nH]c2ccccc23)cc1`: the TGI in experiment [1] was above 84.4 µM; in [2] it was above 89.1 µM; in [8], above 100 µM; in experiment [3], 83.1 µM; in experiment [4], 5.67 µM; in experiment [5], above 100 µM. Besides, the TGI in experiment [10] is above 100 µM; in [6] it was 4.02 µM; in [11], above 100 µM.
